According to patent US9278131B2, “Process for lowering the viscosity of highly concentrated protein solutions” (ADOCIA, priority 2012, dated 2016):

What was measured:
Format in all cases: physicochemical
bevacizumab = experiment: viscosity of highly concentrated bevacizumab solution, cone/plate rheometer; settings: Table I; bevacizumab 250 mg/mL, 150 mM additive, pH 6.2 ± 0.2, 21° C.
Source text: (§1) For this example, three solutions of monoclonal antibodies, i.e. a solution of bevacizumab (an IgG1 sold under the name Avastin® by Genentech/Hoffmann La Roche), a solution of infliximab (an IgG1/K sold under the name Remicade® by Schering-Plough), a solution of rituximab (an IgG1/K sold under the name mAbThera® by Hoffmann La Roche) and a solution of fusion protein, i.e. a solution of abatacept (IgG1-CTLA4 sold under the name Orencia® by Bristol-Meyers Squibb), were concentrated by ultrafiltration on Amicon® Ultra-15 filtration units with a cutoff threshold of 50 kDa.
The protein concentration of each concentrated solution was measured by UV spectroscopy (absorbance at 280 nm) after gravimetric dilution of the samples. […]
The effect of RVs 2 and 9 on the viscosity of these four highly concentrated therapeutic protein solutions was then evaluated comparatively with that of Arg and NaCl. To do this, the viscosity was measured using a cone/plate rheometer (TA Instrument, AR 2000 Ex, geometry of diameter 20 mm, cone of 0.5131°, solvent trap filled with water) at a temperature of 21° C. and in flow sweep mode with shear rates of between 5000 and 50 s^−1 (3 points per decade—steady-state sensing). […]

infliximab [1] = experiment: viscosity of highly concentrated infliximab solution, cone/plate rheometer at 21° C.; settings: for % viscosity reduction relative to the control “protein alone”: infliximab 107 mg/mL; for % viscosity reduction relative to the control infliximab solution: Table V
Source text: as §1
(§2) The protein concentration of each concentrated solution was measured by UV spectroscopy (absorbance at 280 nm) after gravimetric dilution of the samples.
(§3) The effect of RVs 2 and 9 on the viscosity of these four highly concentrated therapeutic protein solutions was then evaluated comparatively with that of Arg and NaCl.
(§4) The samples thus prepared were stored at room temperature and were analyzed using the rheometer within 24 hours of their preparation.
(§5) The pH of these formulations is the same as that of the commercial formulation of the corresponding therapeutic protein.
(§6) In this study, the highly concentrated infliximab and rituximab solutions used are the same as those which were prepared and used previously. […] The pH of these formulations is the same as that of the corresponding therapeutic protein formulation, i.e. 7.2±0.2 for infliximab, and 6.5±0.2 for rituximab.
The highly concentrated infliximab solution used is the same as that which was prepared and used previously. The “protein+RV” formulations were prepared in the presence of concentrations increasing from 0 to 200 mM of Arg or RV 9. The pH of these formulations is the same as that of the commercial infliximab formulation, i.e. 7.2±0.2.
The highly concentrated infliximab solution used is the same as that which was prepared and used previously.
The pH of these formulations is the same as that of the commercial infliximab formulation, i.e. 7.2±0.2.
The highly concentrated infliximab solution used was prepared in the same manner as that used previously. […] The pH of these formulations is the same as that of the commercial infliximab formulation, i.e. 7.2±0.2.

infliximab [2] = experiment: viscosity of highly concentrated infliximab formulation, cone/plate rheometer at 25° C. (example 7); settings: Table VII; infliximab 125 mg/mL, 150 mM additive, pH 7.2 ± 0.2, 25° C.
Protocol: For this example, two monoclonal antibody formulations, i.e. infliximab and trastuzumab (an IgG1/κ sold under the name Herceptin® by Genentech) were concentrated by ultrafiltration on Amicon® Ultra-50 centrifugal filtration units with a cutoff threshold of 50 kDa. The protein concentration of each concentrated solution was measured by UV spectroscopy (absorbance at 280 nm) after gravimetric dilution of the samples. […]
The effect of RVs 2 and 11 on the viscosity of these two highly concentrated therapeutic protein formulations was then evaluated comparatively to that of Arg and NaCl. To do this, the viscosity was measured using a cone/plate rheometer (TA Instrument, AR 2000 Ex, geometry of diameter 20 mm, cone of 0.5131°, solvent trap filled with water) at a temperature of 25° C. and in flow sweep mode with shear rates of between 5000 and 50 s^−1 (3 points per decade—steady-state sensing).
For this example, the “protein+RV” formulations were prepared by mixing a solution of RV at about 1 M obtained in example 1 with one of the concentrated infliximab and trastuzumab formulations prepared previously and the corresponding buffer so as to reach a final RV concentration of 150 mM and a final protein concentration of 125 mg/mL for infliximab and 200 mg/mL for trastuzumab. […]

rituximab = experiment: viscosity of highly concentrated rituximab solution, cone/plate rheometer; settings: rituximab 196 mg/mL, 150 mM additive
Source text: as §1, §2
The solutions of rituximab (10 mg/mL) and of bevacizumab (25 mg/mL) were concentrated, respectively, to 320 mg/mL and 240 mg/mL.
as §3, §4, §5, §6

`Cl.N=C(N)NCCC[C@H](N)C(=O)O` [Arg, L-arginine hydrochloride salt] was tested. Which “% viscosity reduction relative to the control “protein alone”” value (bevacizumab) did it give?
The value was 26%.

And the “% viscosity reduction relative to the control “protein alone”” value (infliximab [1]; Table I, 150 mM additive, pH 7.2 ± 0.2, 21° C.)?
Its value is 32%.

And the “% viscosity reduction relative to the control “protein alone”” value (infliximab [1]; Table II, 150 mM additive, pH 7.2 ± 0.2)?
The value was 32%.

And the “% viscosity reduction relative to the control “protein alone”” value (infliximab [1]; Table IV, additive 25 mM, pH 7.2 ± 0.2)?
The value was 9%.

What about the “% viscosity reduction relative to the control “protein alone”” value (infliximab [1]; Table IV, additive 50 mM, pH 7.2 ± 0.2) of the same molecule?
The value was 13%.

And the “% viscosity reduction relative to the control “protein alone”” value (infliximab [1]; Table IV, additive 100 mM, pH 7.2 ± 0.2)?
Its value is 9%.

What about the “% viscosity reduction relative to the control “protein alone”” value (infliximab [1]; Table IV, additive 150 mM, pH 7.2 ± 0.2) of the same molecule?
Its value is 31%.

And the “% viscosity reduction relative to the control “protein alone”” value (infliximab [1]; Table IV, additive 200 mM, pH 7.2 ± 0.2)?
The value was 34%.

And the “% viscosity reduction relative to the control infliximab solution” value (infliximab [1]; infliximab 80 mg/mL, additive at 150 mM, pH 7.2 ± 0.2)?
The value was 25%.

And the “% viscosity reduction relative to the control infliximab solution” value (infliximab [1]; infliximab 90 mg/mL, additive at 150 mM, pH 7.2 ± 0.2)?
Its value is 30%.

What about the “% viscosity reduction relative to the control infliximab solution” value (infliximab [1]; infliximab 100 mg/mL, additive at 150 mM, pH 7.2 ± 0.2) of the same molecule?
The value was 39%.

What about the “% viscosity reduction relative to the control infliximab solution” value (infliximab [1]; infliximab 110 mg/mL, additive at 150 mM, pH 7.2 ± 0.2) of the same molecule?
Its value is 22%.

And the “viscosity lowering on average, irrespective of the infliximab concentration” value (infliximab [1]; average over infliximab 80-110 mg/mL, additive at 150 mM)?
Its value is “about 29%”.

What about the “% of viscosity reduction relative to the control “protein alone”” value (infliximab [2]) of the same molecule?
The value was 11%.

And the “% viscosity reduction relative to the control “protein alone”” value (rituximab; Table I, pH 6.5 ± 0.2, 21° C.)?
The value was 58%.

And the “% viscosity reduction relative to the control “protein alone”” value (rituximab; Table III, pH 6.5 ± 0.2)?
Its value is 58%.
